Reference: EP4656630A1, “NOVEL COMPOUND AS LYSYL-TRNA SYNTHETASE 1 INHIBITOR, AND USE THEREOF” (Zymedi Co., Ltd., priority 2023, dated 2024)

Legend:
Raw 264.7 cells = test: LN (Laminin 421)-induced immune cell migration, Transwell; assay type: cell-based; conditions: Mus musculus, RAW264.7; 3 µM compound, LN (Laminin 421 1 µg/ml), 24 hours, % inhibition compared to control group; read-out: Migration inhibitor % (3uM)
Method: Cell migration was assessed based on the method described in the prior literature (Park, S. G. et al. Human lysyl-tRNA synthetase is secreted to trigger proinflammatory response. Proceedings of the National Academy of Sciences, 2005, 102.18: 6356-6361.). The specific experimental method is as follows. A Transwell (Corning#3421-5µm pore) was coated with gelatin (0.5mg/ml), and then Raw 264.7 cells (1 x 10^5 cells/well) were seeded in the upper chamber. Serum-free medium (Serum Free DMEM, 500 µl) containing LN (Laminin 421 1 µg/ml) was added to the lower chamber. Each compound was treated at a concentration of 3µM in the upper chamber. After 24 hours, the cells were fixed with 70% methanol for 30 minutes and stained with 50% hematoxylin for 30 minutes. Non-migrating cells on the upper side of the membrane were removed with a cotton swab, and the membrane was mounted on a slide. Migrating cells on the lower side of the membrane were observed under a high-power microscope, and the number of cells was measured from the obtained images and expressed as the inhibition rate (% inhibition) compared to the control group.

Raw264.7 cells = test: KARS1-induced trans-migration assay; assay type: cell-based, mouse; conditions: Mus musculus, RAW264.7; 1 µM compound; read-out: KARS1-induced Raw264.7 cell migration (% inhibition, 1uM)
Method: C0001 inhibits the binding of KARS1 and 67LR, thereby blocking the migration of monocytes/macrophages and suppressing inflammation. Accordingly, a trans-migration assay using mouse macrophages (Raw264.7) was conducted to preliminarily screen drugs that inhibit the migration of monocytes/macrophages.
Based on this, when KARS1 protein was directly treated externally instead of LN, the trans-migration of Raw264.7 was induced, and the cell migration inhibitory effect of the KARS1 inhibitor C0001 was confirmed. It was verified that C0001, which specifically binds to KARS1, can inhibit cell migration by binding to extracellular KARS1, in addition to the mechanism of inhibiting cell membrane migration of KARS1 induced by laminin and its binding to 67LR, thereby enabling this analysis to be used as a direct method for evaluating in vitro activity against KARS1.
Next, preliminary candidate substances with high inhibitory activity at 1 µM were treated at concentrations of 0.1~4 µM for analysis.

KARS1 and 37LR = target: T1, KARS1 and 37LR (Homo sapiens, UniProt Q15046); test: Cell-free ELISA of KARS1 and 37LR (laminin receptor) binding; conditions: 10 µM compound, 1 hour, plate coated with KARS1 (1-207aa), LRF
T1 construct: KARS1 (1-207aa)
T1 sequence (Q15046 1-207): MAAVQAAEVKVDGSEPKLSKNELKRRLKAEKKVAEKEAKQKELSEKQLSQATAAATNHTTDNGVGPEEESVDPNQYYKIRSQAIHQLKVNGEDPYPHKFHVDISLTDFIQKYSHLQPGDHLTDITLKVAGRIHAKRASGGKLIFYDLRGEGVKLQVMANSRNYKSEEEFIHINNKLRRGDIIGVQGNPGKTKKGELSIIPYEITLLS
Method: Next, based on the mechanism of action, a cell-free ELISA analysis was conducted to select compounds with high inhibitory activity on the binding of KARS1 and LR (laminin receptor).

[1] = Microsomal metabolic stability, human; assay type: in vitro ADME
Method: (§1) Metabolic stability (MS) evaluation was conducted for the selected compounds by measuring in vitro stability in two species, rat and human, according to the microsomal stability measurement method. As a result, it was identified that MS varied depending on the transformation of parts A, B, and C.

[2] = Microsomal metabolic stability, rat; assay type: in vitro ADME
Method: as §1

SMILES | inhibition at 3 µM (Raw 264.7 cells) [%] | inhibition at 1 µM (Raw264.7 cells) [%] | inhibition at 10 µM (KARS1 and 37LR) [%] | Metabolic stability (% remaining at 30 min) Human [1] [%] | Metabolic stability (% remaining at 30 min) Rat [2] [%]
COc1ccc(CCN(Cc2ccc(C#CC(=O)O)cc2)c2ncc3ccn(C)c3n2)cc1 [Compound 12, 3-(4-(((4-methoxyphenethyl)(7-methyl-7H-pyrrolo[2,3-d]pyrimidin-2-yl)amino)methyl)phenyl)propiolic acid] | 43 | 55.1 | 57.9 | – | –
COc1ccc(CCN(Cc2ccc(N3CCC(C(=O)O)C3)cc2)c2nc3cccc(F)c3s2)cc1 (stereo not shown) [Compound 13, 1-(4-(((7-fluorobenzo[d]thiazol-2-yl)(4-methoxyphenethyl)amino)-methyl)phenyl)pyrrolidine-3-carboxylic acid] | 90 | 93.4 | 83.9 | 74 | 90
COc1ccc(CCN(Cc2ccc(C(=O)N3CCC[C@H]3C(=O)O)cc2)c2nc3cccc(F)c3s2)cc1 [Compound 14, (4-(((7-fluorobenzo[d]thiazol-2-yl)(4-methoxyphenethyl)amino)-methyl)benzoyl)-L-proline] | 32 | 73.4 | 100 | – | –
COc1ccc(CCN(Cc2ccc(C(=O)N3CCC(C(=O)O)C3)cc2)c2nc3cccc(F)c3s2)cc1 (stereo not shown) [Compound 15, 1-(4-(((7-fluorobenzo[d]thiazol-2-yl)(4-methoxyphenethyl)amino)-methyl)benzoyl)pyrrolidine-3-carboxylic acid] | 0 | 54.4 | 86.4 | – | –
COc1ccc(CCN(Cc2ccc(C(=O)NCC(=O)O)cc2)c2nc3cccc(F)c3s2)cc1 [Compound 16, (4-(((7-fluorobenzo[d]thiazol-2-yl)(4-methoxyphenethyl)amino)-methyl)benzoyl)glycine] | 33 | 86.2 | 68.2 | – | –
COc1ccc(CCN(Cc2cccc(N3CCC(C(=O)O)C3)c2)c2nc3cccc(F)c3s2)cc1 (stereo not shown) [Compound 17, 1-(3-(((7-fluorobenzo[d]thiazol-2-yl)(4-methoxyphenethyl)amino)-methyl)phenyl)pyrrolidine-3-carboxylic acid] | 42 | 5.6 | 79 | 58 | 71
COc1ccc(CCN(Cc2ccc(C(=O)N[C@@H](C(=O)O)C(C)C)cc2)c2nc3cccc(F)c3s2)cc1 [Compound 18, (4-(((7-fluorobenzo[d]thiazol-2-yl)(4-methoxyphenethyl)amino)-methyl)benzoyl)-D-valine] | 9 | 31 | 86.2 | – | –
COc1ccc(CCN(Cc2ccc(N3CCC[C@H]3C(=O)O)cc2)c2nc3cccc(F)c3s2)cc1 [Compound 19, (4-(((7-fluorobenzo[d]thiazol-2-yl)(4-methoxyphenethyl)amino)-methyl)phenyl)-L-proline] | 15 | 69 | 75.8 | – | –
COc1ccc(CCN(Cc2cccc(N3CCC[C@H]3C(=O)O)c2)c2nc3cccc(F)c3s2)cc1 [Compound 20, (3-(((7-fluorobenzo[d]thiazol-2-yl)(4-methoxyphenethyl)amino)-methyl)phenyl)-L-proline] | 18 | 49.1 | 3.4 | – | –
COc1ccc(CCN(Cc2nc3ccc(B(O)O)cc3n2C)c2nc3cccc(F)c3s2)cc1 [Compound 21, (2-(((7-fluorobenzo[d]thiazol-2-yl)(4-methoxyphenethyl)amino)-methyl)-1-methyl-1H-benzo[d]imidazol-6-yl)boronic acid] | 36 | 26.1 | 8.9 | – | –
COc1ccc(CCN(Cc2cccc(N3CC[C@H](C(=O)O)C3)c2)c2nc3cccc(F)c3s2)cc1 [Compound 22, (S)-1-(3-(((7-fluorobenzo[d]thiazol-2-yl)(4-methoxyphenethyl)amino)-methyl)phenyl)pyrrolidine-3-carboxylic acid] | 19 | 43.4 | 52 | – | –
COc1ccc(CCN(Cc2cccc(N3CC[C@@H](C(=O)O)C3)c2)c2nc3cccc(F)c3s2)cc1 [Compound 23, (R)-1-(3-(((7-fluorobenzo[d]thiazol-2-yl)(4-methoxyphenethyl)amino)-methyl)phenyl)pyrrolidine-3-carboxylic acid] | 59 | 35.4 | 71.6 | – | –
COc1ccc(CCN(Cc2ccc(N3CC[C@@H](C(=O)O)C3)cc2)c2nc3cccc(F)c3s2)cc1 [Compound 24, (R)-1-(4-(((7-fluorobenzo[d]thiazol-2-yl)(4-methoxyphenethyl)-amino)methyl)phenyl)pyrrolidine-3-carboxylic acid] | 68 | 96.3 | 65.9 | – | –
COc1ccc(CCN(Cc2ccc(-c3ccc(C(=O)O)o3)cc2)c2nc3cccc(F)c3s2)cc1 [Compound 26, 5-(4-(((7-fluorobenzo[d]thiazol-2-yl)(4-methoxyphenethyl)amino)-methyl)phenyl)furan-2-carboxylic acid] | 48 | 80.6 | 78.4 | – | –
COc1ccc(CCN(Cc2nc3ccc(C(=O)O)cc3n2C)c2nc3cccc(F)c3s2)cc1 [Compound 27, 2-(((7-fluorobenzo[d]thiazol-2-yl)(4-methoxyphenethyl)amino)methyl)-1-methyl-1H-benzo[d]imidazole-6-carboxylic acid] | 9 | 9.1 | 14 | – | –
COc1ccc(CCN(Cc2ccc3c(c2)CN(C(N)=O)C3)c2nc3cccc(F)c3s2)cc1 [Compound 30, 5-(((7-fluorobenzo[d]thiazol-2-yl)(4-methoxyphenethyl)amino)-methyl)isoindoline-2-carboxamide] | 37.4 | 3.2 | 64 | – | –
COc1ccc(CCN(Cc2ccc3c(c2)CN(CC(=O)O)C3)c2nc3cccc(F)c3s2)cc1 [Compound 32, 2-(5-(((7-fluorobenzo[d]thiazol-2-yl)(4-methoxyphenethyl)amino)-methyl)isoindolin-2-yl)acetic acid] | 45 | 18.1 | -27.9 | – | –
COc1ccc(CCN(Cc2ccc(NC3(C(=O)O)CCC3)cc2)c2nc3cccc(F)c3s2)cc1 [Compound 33, 1-((4-(((7-fluorobenzo[d]thiazol-2-yl)(4-methoxyphenethyl)amino)-methyl)phenyl)amino)cyclobutane-1-carboxylic acid] | 15.7 | 57.6 | 41.9 | – | –
COc1ccc(CCN(Cc2ccc(N3CC(C(=O)O)C3)cc2)c2nc3cccc(F)c3s2)cc1 [Compound 39, 1-(4-(((7-fluorobenzo[d]thiazol-2-yl)(4-methoxyphenethyl)amino)-methyl)phenyl)azetidine-3-carboxylic acid] | 51.9 | 97.4 | 37.5 | – | –
O=C(O)[C@@H]1CCN(c2cccc(CN(CCc3ccc(OC(F)(F)F)cc3)c3nc4cccc(F)c4s3)c2)C1 [Compound 40, (R)-1-(3-(((7-fluorobenzo[d]thiazol-2-yl)(4-(trifluoromethoxy)-phenethyl)amino)methyl)phenyl)pyrrolidine-3-carboxylic acid] | 37.7 | 76.1 | 66.7 | – | –
